Results published in patent US20160312185A1, “METHOD FOR PRODUCING MEGAKARYOCYTES AND PLATELETS” (FUNDACIÓN PÚBLICA ANDALUZA PROGRESO Y SALUD, priority 2013, published 2016).

Tested on: AND1 PSC
Experiment: Megakaryocyte precursor analysis (CD34+ and CD34+CD41a+) in EBs by flow cytometry
Type: cell-based, human
Details: wild-type AND1 PSCs, TSA 10 and 100 nM from start, day 14, vs DMSO
Method: The emergence of megakaryocyte precursor cells (CD34+ and CD34+ CD41a^+) during EB differentiation stages on days 10, 14 and 17 of differentiation was evaluated. One third of the EBs growing in a 6-well plate were collected and washed once with PBS. Similarly, to evaluate the effect of Trichostatin A (TSA) on differentiation, the EBs were treated with 10 nM or 100 nM of DMSO or TSA for 14 days. In both cases, the EBs were disassociated with collagenase B and disassociation buffer as described previously. A homogenous cell suspension was obtained after washing the EBs with PBS and being carefully resuspended in […] of PBS with 2% FCS and 2 mM of EDTA until no clumps were observed. The disassociated cells were stained with anti-CD34-PECy7 antibodies (Miltenyi Biotec,
Bergisch Gladbach, Germany) and anti-CD41 a-PE antibodies and 7AAD. Living cells identified by 7AAD exclusion were analyzed using a FACSCanto II flow cytometer.

Structure (SMILES): CC(/C=C/C(=O)NO)=C\[C@@H](C)C(=O)c1ccc(N(C)C)cc1 [Trichostatin A]
- CD34+ CD41+ megakaryocyte progenitors: accelerates the emergence of megakaryocyte progenitors
- CD34+ CD41+ megakaryocyte progenitors (listed as TSA): increase
